Laboratory results published in article PMC8233136, “Monomeric bile acids modulate the ATPase activity of detergent-solubilized ABCB4/MDR3” (Journal of Lipid Research, 2021).
Where “and” joins values, the source holds several entries; their conditions need not be identical. Identical values can stand only once.

Legend:
[1] = Critical micelle concentration by Hoechst 33342 fluorescence in ATPase reaction buffer; assay type: physicochemical; settings: 50 mM Tris-HCl pH 7.5, 100 mM NaCl, 37°C; no FC-16, MgCl2 or ATP
Description: CMC values were determined as described ([61]). […] 96-well plates suitable for fluorescence spectroscopy (Greiner Bio-One, FIA plate, black, flat bottom, medium binding) were used. […] CMCs of the bile acids were determined in ATPase reaction buffer (50 mM Tris-HCl, pH 7.5 (at 37°C), 100 mM NaCl) containing no FC-16, MgCl2, or ATP at 37°C using a Tecan M200 plate reader (Atlantic lab equipment). Bile acids were dissolved either in ddH2O or in 100% DMSO (as stated in “Lipid, cholesterol and bile acid preparation”) at a concentration of 100 mM. […] In case of hydrophobic bile acids, which were dissolved in DMSO, DMSO concentration was adapted to 1% in all wells. […] After background correction, fluorescence data were analyzed using Prism (version 8, GraphPad) with Equation 4:(4) F=Fmax∗(c[BA]−cmc)/(K0.5−cmc)+(c[BA]−cmc)
The measured fluorescence at each bile acid concentration (c[BA]) is represented by F, while Fmax is the maximal fluorescence, K0.5 is the midpoint of the function, and cmc is the critical micelle concentration of the bile acid.

[2] = Solubility / precipitation of bile acids under assay conditions; assay type: physicochemical; settings: assay setup, DMSO stock
Description: (§1) The sodium salts of conjugated and unconjugated bile acids were dissolved in double-distilled water (ddH2O) or 100% DMSO at a concentration of 100 mM. While glyco-/tauro-/cholic acid (G/T/CA), glyco-/tauro-/chenodeoxycholic acid (G/T/CDCA) were dissolved in ddH2O water, glyco-/tauro-/deoxycholic acid (G/T/DCA), glyco/-tauro-/ursodeoxycholic acid (G/T/UDCA) as wells as Nor-UDCA and taurolithocholic acid (TLCA) were dissolved in DMSO. Glyco- and unconjugated lithocholic acid could not be dissolved in DMSO in the appropriate concentrations and therefore excluded. […] Modulation of the ATP hydrolysis by bile acid was determined in a concentration-dependent manner from 0 to 1,000 μM bile acids.

[3] = molecular target: T1, human ABCB4 (Homo sapiens, UniProt P21439); assay: ATP hydrolysis (malachite green) of detergent-solubilized, purified ABCB4: modulation of basal ATPase activity; assay type: biochemical; settings: for Concentration at which maximal stimulation (plateau) of ATPase activity is reached / EC50 / Emax: 0-1,000 μM; for EC50: stimulation of basal ATPase activity, allosteric sigmoidal fit, read-out: EC50; for Emax: vmax of allosteric sigmoidal fit (Equation 1), basal ABCB4 ATPase activity set to 0%, read-out: Max. Stimulation (%)
T1 construct: made in house; host or cells: Pichia pastoris (chromosomally integrated)
T1 sequence (P21439 1-1279 isoform P21439-2): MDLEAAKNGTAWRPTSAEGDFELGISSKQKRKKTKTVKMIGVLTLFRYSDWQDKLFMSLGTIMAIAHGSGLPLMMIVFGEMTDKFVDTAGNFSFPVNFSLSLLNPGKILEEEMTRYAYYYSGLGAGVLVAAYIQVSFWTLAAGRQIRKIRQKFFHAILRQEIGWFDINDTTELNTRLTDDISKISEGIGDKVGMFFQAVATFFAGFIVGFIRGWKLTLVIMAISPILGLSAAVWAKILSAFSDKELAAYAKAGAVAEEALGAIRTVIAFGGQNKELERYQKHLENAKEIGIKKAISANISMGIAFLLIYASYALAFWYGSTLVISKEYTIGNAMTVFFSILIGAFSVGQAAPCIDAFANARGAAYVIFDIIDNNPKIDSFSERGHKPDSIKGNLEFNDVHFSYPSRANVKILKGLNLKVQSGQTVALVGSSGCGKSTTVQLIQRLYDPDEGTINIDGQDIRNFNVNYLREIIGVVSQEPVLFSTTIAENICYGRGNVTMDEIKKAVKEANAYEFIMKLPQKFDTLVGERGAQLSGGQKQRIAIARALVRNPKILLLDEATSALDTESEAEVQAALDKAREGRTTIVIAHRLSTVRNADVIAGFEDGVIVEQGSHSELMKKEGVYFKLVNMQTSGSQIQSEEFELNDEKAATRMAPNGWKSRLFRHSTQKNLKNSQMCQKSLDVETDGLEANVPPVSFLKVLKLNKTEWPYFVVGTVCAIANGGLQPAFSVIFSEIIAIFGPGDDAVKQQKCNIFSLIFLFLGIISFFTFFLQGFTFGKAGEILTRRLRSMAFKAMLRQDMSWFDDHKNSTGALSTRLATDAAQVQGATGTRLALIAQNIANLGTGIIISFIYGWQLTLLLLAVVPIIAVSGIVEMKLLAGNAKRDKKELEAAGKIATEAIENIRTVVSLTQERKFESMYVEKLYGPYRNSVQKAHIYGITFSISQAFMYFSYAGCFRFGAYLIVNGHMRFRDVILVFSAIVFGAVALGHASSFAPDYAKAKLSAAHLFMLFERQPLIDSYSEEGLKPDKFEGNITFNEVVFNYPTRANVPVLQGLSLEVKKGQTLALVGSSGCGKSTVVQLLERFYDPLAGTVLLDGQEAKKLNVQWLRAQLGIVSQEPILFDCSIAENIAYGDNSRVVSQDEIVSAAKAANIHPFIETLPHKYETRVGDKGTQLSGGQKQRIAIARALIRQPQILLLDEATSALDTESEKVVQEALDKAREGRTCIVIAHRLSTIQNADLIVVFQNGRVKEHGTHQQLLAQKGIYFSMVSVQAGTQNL
Description: as §1, with “DMSO.” for “DMSO. Glyco- and unconjugated lithocholic acid could not be dissolved in DMSO in the appropriate concentrations and therefore excluded.”
(§2) Analysis of the ATP activity of ABCB4 was performed by determining the amount of released, free inorganic orthophosphate by the malachite green assay ([53], [54], [60]) with minor modifications. The assay was performed in a total volume of 100 μl consisting of reaction buffer (50 mM Tris HCl, pH 7.4 at 37°C, 100 mM NaCl) supplemented with the 2.5 × cmc of FC-16 and 10 mM MgCl2. For determining the effect of DOPC, different bile acids or combinations thereof, 1–5 μL of the corresponding stock solutions (see lipid and bile acid preparation) were added. Five micrograms of ABCB4 or the BODIPY®-labeled sample was used in every reaction sample. Reaction was started by addition of ATP (5 mM f.c.) and performed for 40 min at 37°C. After 0 and 40 min, the reaction was stopped by transferring 25 μl of the reaction mixture into a 96-well plate containing 175 μl of 20 mM ice-cold sulfuric acid. Additionally, a phosphate standard with concentrations raging from 0 to 500 μM was used. Subsequently, inorganic phosphate was stained by adding 50 μl of dye (0.096% (w/v) malachite green, 1.48% (w/v) ammonium molybdate, 0.173% (w/v) Tween-20, and […] sulfuric acid). After incubation for 15 min, the absorption at 595 nm was measured (iMark™ Microplate Reader, BioRad), and the concentrations of phosphate release were calculated based on the slope of the line calculated based on the phosphate standards.
(§3) Basal ATPase activity of ABCB4 was set to 0% and the effect of supplements was calculated as % stimulation or % inhibition of the basal activity, respectively. For determination of kinetic parameters, bile acid concentration was varied and analyzed according to an allosteric sigmoidal fit (Equation 1):(1) v=vmax∗[S]^h/EC50h+[S]^h
Here, v describes the stimulation (%), vmax is the maximal stimulation (%), EC50 represents the half maximal effective concentration, S is the substrate concentration, and h is the Hill coefficient
In case of inhibition, the reduction (%) was plotted against the bile acid concentration and data were analyzed using Equation 2:(2) y=ymin+(ymax−ymin)/1+10^((logIC50−x)∗slope)
Here, ymax is the smallest, and ymin is the highest amount of inhibition, respectively, and x represents the concentration of the inhibitor. The IC50 value is defined as the concentration necessary to obtain 50% inhibition.
In case of both substrate stimulations, followed by substrate inhibition after maximal stimulation was reached, the modulation (%) was plotted against the substrate concertation and data was analyzed using by two fits: First part (stimulation) was as usually fitted using Equation 1. The second part (substrate inhibition) was analyzed by Equation 3 starting at the last point of the plateau:(3) y=ymin+[…]/(1+x/IC50)
Here, ymax is the highest value of the plateau after stimulation is reached, while ymin is the smallest value of y after maximal stimulation was reached.

[4] = molecular target: T1, human ABCB4; assay: ATP hydrolysis (malachite green) of purified ABCB4 in the presence of 300 μM DOPC (with or without cholesterol); assay type: biochemical; settings: for activity at 1000 µM: 1,000 μM bile acid/detergent/BAM + 300 μM DOPC, read-out: Relative ATPase activity in the presence of 300 μM DOPC
Description: A sample of purified ABCB4 was incubated with 10-fold molar excess of BODIPY® FL maleimide (BODIPY® FL N-(2-aminoethyl)maleimide, Molecular Probes) at 22°C for 20 min. The reaction was quenched after 20 min by addition of a 20-fold molar excess of dithiothreitol (DTT) at 22°C for 10 min. Qualitative labeling efficiency was analyzed by visualizing a sample after SDS-PAGE by UV excitation.
DOPC was dissolved in chloroform, the solvent was evaporated, and the dried lipid sample was redissolved in ATP hydrolysis reaction buffer (50 mM Tris HCl, pH 7.4 at 37°C, 100 mM NaCl) at a concentration of 25.4 mM following the protocol of Geertsma et al. ([59]). Prior to the addition of the DOPC sample to the ATP hydrolysis assay, it was diluted to 5 mM, sonicated until a clear solution was obtained, and subsequently used at a final concentration of 300 μM. Since chloroform is not suitable for the later ATPase assay and cholesterol at higher concentration is insoluble in water and nearly all solvents, a molar mixture of cholesterol and DOPC was used. This mixture was obtained by adding the required molar ratio of cholesterol to always the same amount of dried DOPC. Afterward, the mixture was treated identical to DOPC only as described above resulting in a final concentration (f.c.) of 300 μM DOPC with 0–1,000 μM cholesterol in the ATPase assay.
as §1, with “DMSO.” for “DMSO. Glyco- and unconjugated lithocholic acid could not be dissolved in DMSO in the appropriate concentrations and therefore excluded.”
as §2, §3

[5] = Hill coefficient of allosteric sigmoidal fit of ATPase stimulation

SMILES | Critical micelle concentration (cmc) [1] | Concentration above which the bile acid precipitated [2] | Slope [3, 5] | Concentration at which maximal stimulation (plateau) of ATPase activity is reached ([3]; basal ATPase activity) | EC50 [3] [µM] | Emax [3] [%] | activity at 1000 µM ([4]; DOPC alone set to 100%) [%] | Increase of ATPase activity compared with UDCA ([3]; maximal stimulation, side chain shortened by one carbon atom) | ATPase activity in the presence of cholesterol:DOPC 1.5:1 ([4]; 1,000 μM BAM or Nor-UDCA added to cholesterol:DOPC (1.5:1, 300 μM DOPC), DOPC alone set to 100%) [%] | Reduction of ATPase activity at 100 μM ([3]; 100 μM) [%] | inhibition at 1000 µM ([3]; 1,000 μM, 5% DMSO, mixture experiment Fig. 6, read-out: Inhibition of basal ATPase activity by pure bile acid at 1,000 μM) [%] | Concentration at which maximal inhibition is reached ([3]; basal ATPase activity) [µM] | IC50 ([3]; inhibition of basal ATPase activity, Equation 2) [µM] | Slope ([3]; slope of inhibition fit (Equation 2)) | Decrease of DOPC-stimulated ATPase activity ([4]; 1,000 μM + 300 μM DOPC, relative to DOPC alone)
C[C@H](CCC(=O)NCC(=O)O)[C@H]1CC[C@H]2[C@@H]3CC[C@@H]4C[C@H](O)CC[C@]4(C)[C@H]3CC[C@]12C [Glycolithocholic acid] | Precipitate ^a | higher than 100 μM |  |  |  |  |  |  |  |  |  |  |  |  | 
C[C@H](CCC(=O)O)[C@H]1CC[C@H]2[C@@H]3CC[C@@H]4C[C@H](O)CC[C@]4(C)[C@H]3C[C@H](O)[C@]12C [DCA, deoxycholic acid] | 1.4 mM and 1.4 ± 0.1 mM |  | 2.6 ± 0.6 | 300 µM | 75 ± 7.3 | 214 ± 13.3 | 100 ± 7.5 |  |  |  |  |  |  |  | 
C[C@H](CCC(=O)NCCS(=O)(=O)O)[C@H]1CC[C@H]2[C@@H]3[C@H](O)C[C@@H]4C[C@H](O)CC[C@]4(C)[C@H]3CC[C@]12C [TCDCA, taurochenodeoxycholic acid] | 1.7 mM and 1.7 ± 0.1 mM |  | 2.6 ± 0.4 | approximately 500 μM | 169 ± 11 | 423 ± 15 | 112 ± 8.2 |  |  |  |  |  |  |  | 
C[C@H](CCC(=O)O)[C@H]1CC[C@H]2[C@@H]3[C@H](O)C[C@@H]4C[C@H](O)CC[C@]4(C)[C@H]3CC[C@]12C [CDCA, chenodeoxycholic acid] | 1.5 mM and 1.5 ± 0.1 mM |  | 1.8 ± 0.4 |  | 308 ± 56.8 | 137 ± 16.8 | 89.7 ± 1.4 |  |  |  |  |  |  |  | 
C[C@H](CC(=O)O)[C@H]1CC[C@H]2[C@@H]3[C@@H](O)C[C@@H]4C[C@H](O)CC[C@]4(C)[C@H]3CC[C@]12C [Nor-UDCA, 24-nor-ursodeoxycholic acid] | 1.8 mM and 1.8 ± 0.1 mM |  | 6.3 ± 1.3 |  | 476 ± 18.5 | 195 ± 10.8 | 373 ± 30 | approximately 85% | 380.7 ± 45.6 |  |  |  |  |  | 
C[C@H](CCC(=O)NCCS(=O)(=O)O)[C@H]1CC[C@H]2[C@@H]3CC[C@@H]4C[C@H](O)CC[C@]4(C)[C@H]3CC[C@]12C [TLCA, taurolithocholic acid] | 0.14 mM and 0.14 ± 0.03 mM |  |  |  |  |  | 34.8 ± 21.9 |  |  | 36 | ~50 | 400 | 113 | −2.7 ± 2.1 | approximately 65%
C[C@H](CCC(=O)NCC(=O)O)[C@H]1CC[C@H]2[C@@H]3[C@H](O)C[C@@H]4C[C@H](O)CC[C@]4(C)[C@H]3C[C@H](O)[C@]12C [GCA] | 4.1 mM and 4.1 ± 0.1 mM |  | 2.9 ± 0.4 | approximately 400 μM | 177 ± 9.9 | 733 ± 24 | 171 ± 6.9 |  |  |  |  |  |  |  | 
C[C@H](CCC(=O)NCC(=O)O)[C@H]1CC[C@H]2[C@@H]3CC[C@@H]4C[C@H](O)CC[C@]4(C)[C@H]3C[C@H](O)[C@]12C [GDCA] | 2.0 mM and 2.0 ± 0.1 mM |  | 5.9 ± 1.2 |  | 47.9 ± 1.5 | 259 ± 5 | 156 ± 8.9 |  |  |  |  |  |  |  | 
